2 molecules from patent US20230405002A1, “COMBINATIONS OF DIACYLGLYCEROL ACYLTRANSFERASE 2 INHIBITORS AND ACETYL-COA CARBOXYLASE INHIBITOR” (Pfizer Inc., priority 2020, published 2023) can be followed below.

Experiment [1] concerns Western diet fed Sprague Dawley rats. Kind of experiment: Compound A / Compound D study in Western diet fed rats: fed and fasted plasma triglycerides. The class given is in vivo, rat. Particulars: for increase in fasted plasma TG / reduction of fasted plasma TG: relative to vehicle administered Western diet fed rats; for increase in plasma TG in the fed state / reduction of plasma TG in the fed state: relative to vehicle-administered Western diet fed rats. The procedure: (§1) A randomized, vehicle-controlled, 8-parallel arm study was conducted in male Sprague-Dawley rats (Charles River (Boston, MA)) to obtain circulating and hepatic TG levels. Standard laboratory conditions were used to house 96 rats (˜200 g); they were double housed and kept under 12:12-hour reverse light-dark schedule (lights off at 8:00 AM). Rats were randomized into chow or Western diet groups and dose groups upon arrival and were given a 14-day lead-in period on either standard rat chow or Western diet prior to the start of the study. Standard Laboratory Rodent chow diet, 5053, was from LabDiet (PMI, St Louis, Missouri). Western Diet, D12079Bi, was from Research Diets (New Brunswick, NJ).
(§2) For these studies, vehicle was prepared to make a 0.5% (wt/volume) of methyl cellulose (MC, Sigma Aldrich, 274429) in deionized water.
Fed plasma analytes: Blood for determining fed plasma TG concentrations was collected 2 hours post dose (2 hours into the dark cycle) via lateral tail vein, transferred to BD Microtainer tubes coated with dipotassium ethylenediaminetetraacetic acid (K2EDTA) (PN365974), and centrifuged at 4° C. The resulting plasma samples were then analyzed on a Siemens Chemistry XPT clinical analyzer (Malven, PA) using Siemens triglycerides_2 assay reagents (ref 10335892).
Fasted plasma analytes: Blood for determining fasted plasma TG was collected after a 4 hour fast, 2 hours post-dose (2 hours into the dark cycle) via lateral tail vein, transferred to BD Microtainer tubes coated with K2EDTA (PN365974), and centrifuged at 4° C. The resulting plasma samples were then analyzed on a Siemens Chemistry XPT clinical analyzer (Malven, PA) using Siemens triglycerides 2 assay reagents (ref 10335892).

The test system is the same in experiment [2]. The experiment in a line: Compound A / Compound D study in Western diet fed rats: hepatic triglyceride (steatosis). The following applies: relative to vehicle administered Western diet fed rats. The class given is in vivo, rat. The procedure:
as §1, §2
On the last day of the study (Day 28), rats were sacrificed for tissue collection after a 4 hour fast, 2 hours post-dose: two hours post-dose, blood for determining plasma analytes was collected via lateral tail vein and then the animals were sacrificed by CO2 asphyxiation. Blood was transferred to BD Microtainer tubes coated with K2EDTA (PN365974), centrifuged at 4° C. and the plasma transferred to a 96-well microtitre plate and stored at −20° C. Livers were rapidly removed, freeze-clamped in a Wollenberg clamp pre-cooled in liquid N2 individually wrapped in aluminum foil and subsequently stored at −80° C.
Tissue pulverization: Frozen livers were rapidly pulverized on an aluminum block cooled in liquid N2, ensuring the tissue remained frozen throughout the pulverization. The pulverized tissues were transferred and stored in 7 mL polypropylene conical tubes at −80° C. until analysis.
Extraction for hepatic triglyceride: Approximately 50 to 100 mg of pulverized tissue was added to a 2 mL lysing matrix D tube (MP Bio) containing 800 μL ice cold 1:1 CHCl3:MEOH. Samples were immediately extracted at 4° C. using Qiagen Tissue Lyser II (Qiagen Cat No. 85300) for 4 minutes at 30 Hz. The homogenate was then transferred to 13×100 mm glass tubes and placed on ice. The lysis tubes were then rinsed with 800 μL of 1:1 CHCl3:MeOH, vortexed for 30 seconds and added to the 13×100 mm glass tubes. While on ice, 2.4 ml of 100% CHCl3 was added to all glass vials to bring the ratio of CHCl3:MeOH to 4:2. Samples were then placed in the −20° C. freezer overnight. On the following day, 1.75 mL 1 M KCl H2O was added to bring the ratio to 4:2:1.75 ratio CHCl3:MeOH:H2O. Samples were then vortexed for 30 seconds and centrifuged at 1500 rpm×15 min., at 4° C. After centrifugation, the organic phase was transferred to a fresh 13×100 mm extraction tube, dried down at 37° C. under N2 and re-suspended in 750 μL CHCl3. […]

In experiment [3] the test system is ACC1, FASN, SCD1, PCSK9 and SREBP-1c. Kind of experiment: Compound A / Compound D study in Western diet fed rats: hepatic lipogenic gene expression (qPCR). In kind it is in vivo, rat. Particulars: relative to Western diet fed vehicle treated rats. The method, then: as §1
Another portion of the pulverized liver was processed and analyzed for lipogenic gene expression. Rat taqman probes against ACC1, FASN, SCD1, PCSK9 and SREBP-1c were all assessed using Actb as housekeeping gene on qPCR.
A general note: Quantitative PCR measures a nucleic acid by following its amplification.

Experiment [4] deals with CDAHFD fed male Wistar-Han rats. The experiment in a line: CDAHFD rat study: liver stiffness by shearwave elastography. In kind it is in vivo. The following applies: Compound A 5 mg/kg, Compound D 30 mg/kg twice daily, 6 weeks. The source says:
Standard laboratory conditions were used to house 60 rats (˜200 g); they were double housed and kept under 12:12-hour reverse light-dark schedule (lights off at 8:00 AM). Rats were fed choline deficient and high fat diet (CDAHFD) beginning 6-weeks prior to initiation of the study. […] Animals (n=12) remaining on normal chow throughout the study and administered twice-daily vehicle were used as a control group. Blood samples were collected prior to starting compound administration and 3- and 6-week post compound administration for the assessment of circulating markers. Shearwave elastography (Aixplorer Ultimate imager, Supersoinc imagine) measurements were made at Week −3, Week 0 (prior to 1st dose), Week 3 and Week 6 to assess inflammation and fibrosis progression over time. Histology was assessed following 6-weeks of drug administration which corresponded to 12 weeks on the CDAHFD. Results are provided as an average of animals per each dosing group.

Where [5] appears, read: high dose (Compound A 10 mg/kg QD).
Where [6] appears, read: low dose (Compound A 1 mg/kg QD).
The mark [7] stands for this setting: high dose (Compound A 10 mg/kg QD, Compound D 30 mg/kg BID).
Where [8] appears, read: low dose (Compound A 1 mg/kg QD, Compound D 5 mg/kg BID).

The structures appear in SMILES notation.

Turning to `COc1cc(C(=O)N2CCC3(CC2)CC(=O)c2c(cnn2C(C)C)C3)cc(-c2ccc(C(=O)O)cc2)n1` [Compound A, 4-(4-(1-isopropyl-7-oxo-1,4,6,7-tetrahydrospiro[indazole-5,4′-piperidine]-1′-carbonyl)-6-methoxypyridin-2-yl)benzoic acid], the “increase in fasted plasma TG” value in experiment [1] (setting [5]) was 1.7 fold; in experiment [1] (setting [6]), 2.4 fold. The “increase in plasma TG in the fed state” value in experiment [1] (setting [5]) was determined as 1.3 fold; in experiment [1] (setting [6]), 1.7 fold. The “reduction in steatosis (hepatic triglyceride)” value was 53% in experiment [2] (setting [7]) and 36% in experiment [2] (setting [8]). The “hepatic lipogenic gene expression (ACC1, FASN, SCD1, SREBP1, PCSK9)” value in experiment [3] is reported as “trended to further increase”. Also, the “liver stiffness (shearwave elastography)” value in experiment [4] is reported as “reduced liver stiffness”.

With `CCOc1cccnc1Oc1cncc(-c2ncc(C(=O)N[C@H]3CCOC3)cn2)c1` [Compound D, (S)-2-(5-((3-ethoxypyridin-2-yl)oxy)pyridin-3-yl)-N-(tetrahydrofuran-3-yl)pyrimidine-5-carboxamide], the “reduction of plasma TG in the fed state” value in experiment [1] (setting [7]) came to 63%; in experiment [1] (setting [8]), 55%. Moreover, the “reduction of fasted plasma TG” value is 35% in experiment [1] (high dose (Compound D 30 mg/kg BID)) and 20% in experiment [1] (low dose (Compound D 5 mg/kg BID)). For the same molecule, the “reduction in steatosis (hepatic triglyceride)” value in experiment [2] (setting [7]) came out at 30%; in experiment [2] (setting [8]), 25%. For the same molecule, the “hepatic lipogenic gene expression (ACC1, FASN, SCD1, SREBP1, PCSK9)” value in experiment [3] is listed as “decreased expression of all of the lipogenic genes”. Moreover, in experiment [4], the “liver stiffness (shearwave elastography)” value is listed as “reduced liver stiffness”.
